Data taken from patent US12691124B2, “Methods of controlling and improving brain health” (ICAHN SCHOOL OF MEDICINE AT MOUNT SINAI, priority 2019, dated 2026).

How the values were obtained:
primary cortical neurons = assay: Gene expression in primary cortical neurons; assay type: cell-based, mouse
Description: Primary Cortical Neuron Culture. Embryonic day 18 (E18) timed-pregnant female mice were anesthetized with CO2 and sacrificed by cervical dislocation. In a dissection hood, 24-26 embryos per experiment were collected through an incision of the mother's abdomen, taken out of the amniotic sacs and decapitated in ice cold Hank's Balanced Salt Solution (HBSS). Using fine scissors and forceps, brains were rapidly dissected and the cortex cleared from meninges and isolated under a dissection microscope. Cortices were collected in ice cold HBSS and kept on ice until all embryos had been dissected. In a tissue culture hood, HBSS was removed and the cortex tissue digested by 0.25% Trypsin-EDTA for 12 minutes at 37° C., followed by DNase1 treatment for 10 minutes at 37° C. The tissue was dissociated by serial trituration with a 25 ml serological pipette, followed by trituration with 10 ml and 5 ml serological pipettes. Cell suspension was washed once with DMEM medium, supplemented with 10% FBS and 1% penicillin/streptomycin and passed through a […] cell strainer before counted on a hemocytometer. Single cells were seeded on poly-D-lysine (0.1 mg ml-1) coated wells at a density of 1×10^6 cells per well on a 12-well plate. Cells were grown in Neurobasal medium, complemented with B27 supplement, N2 supplement, and 0.5 mM L-glutamine and maintained at 37° C. in 5% CO2 for 1 week. […] Cultures were washed with phosphate-buffered saline (PBS) on ice and processed for RNA isolation using TRIzol/Chloroform extraction.
RNA Isolation. For in vitro gene expression analysis, neuronal culture plates were washed once with PBS, and TRIzol was added directly to cultures to isolate RNA (n=3 per group). For in vivo gene expression analysis, mice were anesthetized with CO2 and decapitated. The striata from two control and acute or chronic I-BET treated mice were rapidly dissected on ice and frozen in liquid nitrogen. RNA extraction from frozen samples was performed using TRIzol/Chloroform according to manufacturer's instructions (Invitrogen Corporation, Carlsbad, CA). RNA was precipitated overnight at −80° C. in isopropanol with 0.15 M sodium acetate, washed twice with 70% ethanol, air-dried, and resuspended in RNase-free water. RNA samples were purified using Rneasy Micro columns (Qiagen) with on-column DNAse treatment as specified by manufacturer. […]
RNA Sequencing. […] Duplexed libraries were sequenced on HiSeq 2000, typically yielding on average 60 million, 100 bp long single-end reads per sample (Illumina). […] After filtering out adaptor and low quality reads, reads were mapped using TopHat (version 2.0.8) to the mm9 mouse genome. […] Differentially expressed autosomal genes between control and acute I-BET858 or chronic I-BET858 libraries were determined using a p-value <0.05 and fold change of >2. […]

wild-type mice = assay: Classic fear conditioning in wild-type mice; assay type: in vivo, mouse; details: five weeks of daily IBET858 injections
Description: […] Albans, VT) as described previously (Schaefer et al., “Control of Cognition and Adaptive Behavior by the GLP/G9a Epigenetic Suppressor Complex,” Neuron 64:678-691 (2009), which is hereby incorporated by reference in its entirety). Briefly, a mouse was placed in the test chamber (house lights on) and allowed to explore freely for 2 min. A white noise (80 dB) was then presented for 30 s, co-terminating with a mild foot shock (2 s, 0.5 mA). Two minutes later the same sequence of auditory cue-shock pairing was repeated. The mouse was removed from the chamber 30 s later and returned to its home cage. Freezing behavior was continuously recorded during the time spent in the test chamber. […] Twenty-four hours later, the mouse was placed back into the test chamber for 5 min and freezing behavior was recorded (context test). Two hours later, the mouse was tested for freezing in response to the auditory cue. Environmental and contextual cues were changed for the auditory cue test. The auditory cue test was divided into two phases: 3 min in the absence of the auditory cue and 3 min of the auditory cue. The time freezing during each test was converted to a percentage of freezing value.
To understand if these cellular and molecular improvements impact behavior, memory was assessed using the classic fear conditioning paradigm.

microglia in vivo = assay: TRAP of microglia from striatum and cerebellum after chronic IBET858; design: species or system mouse; details: 30 mg/kg i.p. once daily, two weeks
Description: Cx3Cr1^CreErt2/+; Efl10a mice were orally gavaged 5 times with tamoxifen to induce the expression of gfp-labelled ribosome. Mice were intraperitoneally injected with IBET858 (30 mg/kg) or vehicle control once daily for two weeks. Four hours after either an acute (1 injection) or chronic (2 weeks) injection, mice were decapitated and used for TRAP.
To better understand how IBET858 affects microglia in their homeostatic state, translating ribosome affinity purification (TRAP) after chronic IBET858 administration was used. TRAP is ideal because it prevents the induction of immediate early and pro-inflammatory genes caused by other isolation protocols which can occlude homeostatic transcriptional profiles. Ayata et al., “Epigenetic Regulation of Brain Region-Specific Microglia Clearance Activity,” Nature Neuroscience 21:1049-1060 (2018), which is hereby incorporated by reference in its entirety. As observed in vitro, microglial lineage is maintained after chronic BET inhibition IBET858 as indicated by expression of Hexb, Fcrls, and Fcer1g in either the striatum or cerebellum (FIG. 4B). […] This is especially important because loss of these region-specific gene expression signatures is highly detrimental to brain function. Ayata et al., “Epigenetic Regulation of Brain Region-Specific Microglia Clearance Activity,” Nature Neuroscience 21:1049-1060 (2018), which is hereby incorporated by reference in its entirety. […] Therefore it is likely that BET inhibition can prevent or modulate pathological microglial activation in vivo as occurs during neurodegeneration.

CC(=O)N1c2ccc(-c3ccc(CN4CCCCC4)cc3)cc2[C@H](Nc2ccccc2)CC1C (stereo in doubt) [IBET858]
cellular composition of the culture and cell identity gene expression (primary cortical neurons; 1 week IBET858): does not change
autophagy, proteolysis and pro-survival genes (primary cortical neurons; chronic BET inhibition): up-regulation
metabolic genes (amino acid synthesis and import, glycolysis/TCA cycle, oxidative phosphorylation, fatty acid metabolism) (primary cortical neurons; chronic BET inhibition, day 14): down-regulated
genes decreased by rapamycin that were also decreased by IBET858 (primary cortical neurons; one week treatment, 93/165): 56%
contextual recall (wild-type mice): significantly increased
microglial lineage (Hexb, Fcrls, Fcer1g expression) in striatum or cerebellum (microglia in vivo): maintained
regional microglial transcriptomic heterogeneity (microglia in vivo): also unaffected
striatal microglial inflammatory genes (Ccr5, Cd180, Gpr84, Wdfy1) (microglia in vivo): suppressed
